# Assay results taken from US10828326B2, “Compositions and methods for treating and preventing venom related poisoning” (priority 2015, dated 2020).
# Tested on: C. atrox venom
# Test: Isolated venom exposure to FeCl3, CORM-2 or iCORM-2, then thrombelastography in human plasma (Example VI)
# Type: biochemical, Crotalus atrox
# Details: in words
# Procedure: C. atrox venom was obtained from the National Natural Toxins Research Center at Texas A&M University-Kingsville, Tex., USA. Venom was reconstituted in calcium-free phosphate buffered saline (PBS, Sigma-Aldrich, Saint Louis, Mo., USA), and stored at −80° C. Pooled human normal plasma anticoagulated with sodium citrate was obtained from George King Bio-Medical, Overland Park, Kans., USA. Ferric chloride (FeCl3, 99.9% pure), tricarbonyldichlororuthenium (II) dimer (CORM-2), and dimethyl sulfoxide (DMSO) were obtained from Sigma-Aldrich. The final concentrations of FeCl3 (dissolved in PBS) and CORM-2 (dissolved in DMSO) were 0-10 μM and 0-100 μM, respectively; these were the concentrations used in previous works involving the effects of modifying fibrinogen prior to venom exposure in plasma.
# To increase the detection of effects of iron/CO on venom activity, the concentration of venom chosen for isolated exposure and for addition to plasma was twice the amount expected to eliminate coagulation based on previous work (see, Nielsen V G, Boyer L V. Iron and carbon monoxide attenuate degradation of plasmatic coagulation by Crotalus atrox venom. Blood Coagul Fibrinolysis. In press). A 1 ml quantity of a 200 μg/ml solution of venom in PBS was prepared for each condition subsequently presented. The conditions were: 1) 1% addition (v/v) of PBS and DMSO to PBS without venom; 2) 1% addition (v/v) of PBS and DMSO to PBS with venom; 3) 1% addition of FeCl3 and CORM-2 to PBS without venom; 4) 1% addition of FeCl3 and CORM-2 to PBS […]) 1% addition of FeCl3 and DMSO to PBS with venom; 6) 1% addition of CORM-2 to PBS with venom; and lastly, 7) 1% addition of PBS and iCORM-2 to PBS with venom. After 3 min of incubation at room temperature, 3.6 μl of solution from one of these conditions was placed into 326 μl of plasma and 10 μl of tissue factor reagent (0.1% final concentration in distilled water; Diagnostica Stago S.A.S., Asnieres sur Seine, France) in a disposable cup in a computer-controlled Thrombelastograph® hemostasis system (Model 5000, Haemonetics Inc., Braintree, Mass., USA). After test solution addition, 20 μl of 200 mM CaCl2 was immediately added to initiate clotting. Data were collected at 37° C. for 15 min. […] 2014; 25(8):801-805) were determined: time to maximum rate of thrombus generation (TMRTG): this is the time interval (min) observed prior to maximum speed of clot growth; maximum rate of thrombus generation (MRTG): this is the maximum velocity of clot growth observed (dynes/cm^2/sec); and total thrombus generation (TTG, dynes/cm^2), the final viscoelastic resistance observed after clot formation. […]
compound,measurement,setting,value
"[Cl][Fe]([Cl])[Cl] [iron, ferric chloride]",effects on C. atrox venom activity on plasmatic coagulation,isolated venom exposure,no appreciable effects
same,coagulation kinetic parameters of plasma after addition of PBS with venom exposed to the agent,"venom 2 μg/ml final, 10 μM FeCl3, 100 μM CORM-2 or iCORM-2",absence of coagulation not different from samples exposed to venom alone
